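Protocol summary: plate cells (96-well), add compound at 5 concentrations, incubate 48 h, interpolate endpoints linearly. TGI: total growth inhibition.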
Legend:
Test in all cases: NCI tumour cell line growth inhibition, 48 h
DMS 114 small cell lung = system: DMS 114 small cell lung
DMS 273 small cell lung = system: DMS 273 small cell lung
KM20L2 colon = system: KM20L2 colon
XF 498 CNS = system: XF 498 CNS
SN12K1 renal = system: SN12K1 renal
P388/ADR leukemia = system: P388/ADR leukemia
DLD-1 colon = system: DLD-1 colon
P388 leukemia = system: P388 leukemia
HOP-18 NSCLC = system: HOP-18 NSCLC
LXFL 529 NSCLC = system: LXFL 529 NSCLC

Row | Compound | TGI (DMS 114 small cell lung) | TGI (DMS 273 small cell lung) | TGI (KM20L2 colon) | TGI (XF 498 CNS) | TGI (SN12K1 renal) | TGI (P388/ADR leukemia) | TGI (DLD-1 colon) | TGI (P388 leukemia) | TGI (HOP-18 NSCLC) | TGI (LXFL 529 NSCLC)
1 | CN(C)CCCNc1c2ccccc2nc2cccc([N+](=O)[O-])c12 | 0.0385 µM | 0.0184 µM | 0.0398 µM | 0.0147 µM |  |  |  |  |  | 
2 | CC(=O)OCc1cc(=O)n(C)c2c3c4c(cc12)c(C)cc(=O)n4CO3 | 6.11 µM | 3.86 µM | 15.8 µM | 3.82 µM | 5.57 µM | 3.34 µM | 26.3 µM | 4.99 µM | 51.5 µM | 
3 | CSc1nc(NC2OCC(O)C(O)C2O)c(N)c(=O)n1C (stereo not drawn) |  | > 100 µM | > 100 µM | > 100 µM | > 100 µM | > 100 µM | > 100 µM | > 100 µM | > 100 µM | 
4 | COc1cccc2c1C1(O)C2CCCC12OCCCO2 (stereo not drawn) | > 100 µM | > 100 µM | > 100 µM |  |  |  | > 100 µM |  | > 100 µM | > 100 µM
5 | [N-]=[N+]=NC1CC(n2cc(COCC(F)(F)F)c(=O)[nH]c2=O)OC1CO (stereo not drawn) | > 100 µM | > 100 µM | > 100 µM | > 100 µM |  |  | > 100 µM |  |  | > 100 µM
6 | CC(=O)NC1=C(C)C(=O)c2c(nc3n2CCC3O)C1=O (stereo not drawn) | 21 µM | > 100 µM | > 100 µM | 38.1 µM |  |  | > 100 µM |  | > 100 µM | 41.8 µM
7 | CC1CCc2c(sc3ncnc(N/N=C/c4ccc(Cl)c(Cl)c4)c23)C1 (stereo not drawn) | 13.3 µM | 39.6 µM | > 100 µM |  |  |  | > 100 µM |  |  | 
8 | C[C@@H]1C[C@]2(C[C@@H](C)[C@H]3C(C[C@@]4(C)CCC[C@@H]5C6=C[C@H](CCC34C)OC6=CC(=O)OC5(C)C)O2)OC1=O (stereo partly drawn) | > 51.5 µM | > 51.5 µM | > 51.5 µM | > 51.5 µM | > 51.5 µM | > 51.5 µM | > 51.5 µM | > 51.5 µM | > 51.5 µM | 
9 | Oc1ccc2c(c1)CC[N+]1=C2CCC2CCCC21 (stereo not drawn) | > 100 µM | > 100 µM |  |  |  |  | > 100 µM |  |  | > 100 µM
10 | O=C1c2ccccc2C(=O)c2c1ccc1c2N=C(c2ccc(F)cc2)CC(c2ccc(Cl)c(Cl)c2)N1 (stereo not drawn) | 21.7 µM |  | 30.8 µM |  |  |  | 31.8 µM |  |  | 30 µM
11 | CCNC(=O)/C=C/CCC#Cc1ccc(-c2ccc(-c3cccs3)s2)s1 | > 100 µM | > 100 µM | > 100 µM | 7.19 µM |  |  | > 100 µM |  | > 100 µM | > 100 µM
